We go through twelve compounds from article PMC9029323, “In Silico Identification of Novel Inhibitors Targeting the Homodimeric Interface of Superoxide Dismutase from the Dental Pathogen Streptococcus mutans” (Antioxidants, 2022).

Experiment [1] addresses T1, SmSOD (Streptococcus mutans serotype c, UniProt P09738).
T1 construct: His-tail; made in house; host or cells: Escherichia coli BL21(DE3), vector vSmSOD (pET-22b(+)-derived)
Description: SOD activity assay (inhibition of cytochrome c reduction, xanthine/xanthine oxidase method) with SmSOD. The format is biochemical. The note with it: for remaining activity at 50 µM: 50 µM compound; for remaining activity at 50 µM / remaining activity at 100 µM / IC50: ALS-31 derivatives, Table 2; for remaining activity at 50 µM / remaining activity at 100 µM: read-out: Residual SOD Activity (%) in the Presence of [Compound]; for remaining activity at 100 µM: 100 µM compound; for IC50: SmSOD activity, read-out: IC50; for effect on SmSOD activity (in words): screening concentrations or inhibition profile up to 300 µM.
Description: Purified recombinant forms of SmSOD and StSOD were obtained through a heterologous expression system constituted by the Escherichia coli BL21(DE3) strain transformed with appropriate expression vectors, vSmSOD [11] or vStSOD [12]. These pET-22b(+)- or pET-28b(+)-derived plasmids led to the production of recombinant forms of SmSOD or StSOD, respectively fused to a His-tail, useful for their one-step purification by affinity chromatography, as previously described [11, 12]. The improvement of Mn uptake by SmSOD was realised as previously described [11, 12, 13]. The resulting metal (Fe and Mn) content in the cambialistic enzyme was determined by graphite furnace atomic absorption spectrometry with a Shimadzu ACS-6100 auto sampler [46]. Fe-SOD from Escherichia coli (cat. SRP6107) and the Cu/Zn-SOD from bovine erythrocytes (cat. 574594) were purchased from Sigma–Aldrich. A recombinant form of the eukaryal Mn–SOD from rat mitochondria was prepared as previously described [19]. Protein concentration was determined by the Bradford method, using bovine serum albumin as standard [47]. […] One unit of SOD activity was defined as the amount of enzyme that caused 50% inhibition of cytochrome c reduction.

Experiment [2] concerns Streptococcus mutans ATCC-700610. Description: Broth micro-dilution antibacterial assay (planktonic growth). The format is cell-based. Conditions: 24 h. How it is done: (§1) The bacterial strain used for antimicrobial assays was Streptococcus mutans ATCC-700610. The strain was stored in 15% (v/v) glycerol stocks at −80 °C. Before each experiment, cells were subcultured from the stocks into Trypticase Soy Agar (TSA, cat. PA-254051.06) with 5% Sheep Blood (Becton Dickinson, Sparks, NV, USA) plates at 37 °C in 5% CO2 atmosphere for 48 h.
The antibacterial activity of compounds ALS-31 or ALS-31-9 was assayed in S. mutans cultures by a standard broth micro-dilution method in 96-well polystyrene plates using Brain-Heart Infusion broth (BHI, cat. 255003, Becton Dickinson, Sparks, NV, USA). One hundred microliters of bacterial suspension adjusted to approximately 1.5 × 10^6 CFU/mL were incubated with 100 µL of serial dilutions of the compounds dissolved in final 1.0% (v/v) DMSO as a vehicle. The plates were incubated at 37 °C in 5% CO2 atmosphere for 24 h under shaking (300 rpm). The medium turbidity was measured by a spectrophotometer at 595 nm (Bio-Rad Laboratories Inc., Hercules, CA, USA). Compound-free wells in 1.0% (v/v) DMSO were used as controls (100% planktonic growth), and antibacterial activity was expressed as a percentage of residual growth. Chlorhexidine acetate (CHX, cat. 51094, Sigma-Aldrich, St. Louis, MO, USA) solution (1 mg/mL) was prepared and included as control for the assay of S. mutans’ susceptibility (MIC referred to [51]). Each compound was tested in triplicate; each experiment was performed twice.
Background: Broth dilution looks for growth in wells or tubes with falling amounts of substance.

For experiment [3] the test system is unchanged. Description: Crystal violet staining biofilm biomass assay. Conditions: Streptococcus mutans, ATCC700610, 24 h, read-out: inhibition of biofilm biomass formation. Format: cell-based. How it is done:
as §1
The crystal violet (CV) staining method was used to measure biofilm biomass formed in flat-bottomed 96-well microplates in the presence of ALS-31 or ALS-31-9, as described by Stepanović et al., with some modifications. A bacterial suspension of approximately 1.5 × 10^6 CFU/mL in BHI supplemented with 1% (w/v) glucose was prepared, and 100-µL aliquots of this suspension were incubated with 100 µL of serial dilutions of each compound. The microplate was incubated at 37 °C for 24 h, after which the non-adherent cells were gently aspirated and the wells gently rinsed with PBS (Sigma–Aldrich). The adhered biofilm was dried at 60 °C for 30 min and subsequently stained with 0.1% (w/v) crystal violet solution for 30 min. After washing with PBS and solubilization with absolute ethanol to release the dye from the biofilm, the plate was read at 570 nm in a spectrophotometer. The absorbance recorded was related to the amount of biofilm produced. The reduction in the mass of the biofilm was expressed as a percentage by using the formula [(Ac-At)/Ac] × 100, where Ac is the OD570 for the control wells and At is the OD570 in the presence of the tested compound.

In general, IC50 refers to the concentration that inhibits the measured activity by half. One may read the inhibition as how much of the control response was suppressed.

T1 sequence (P09738 2-203): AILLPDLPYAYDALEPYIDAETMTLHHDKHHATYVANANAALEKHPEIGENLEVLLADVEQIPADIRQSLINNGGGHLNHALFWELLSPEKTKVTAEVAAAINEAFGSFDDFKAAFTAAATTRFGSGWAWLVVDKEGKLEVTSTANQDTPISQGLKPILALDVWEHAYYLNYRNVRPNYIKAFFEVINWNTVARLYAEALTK

For `CSCCC(NC(=O)COc1ccc2c3c(c(=O)oc2c1)CCC3)C(=O)O` (stereo not drawn) [ALS-31-1], in experiment [1], the remaining activity at 50 µM amounted to 104% and the remaining activity at 100 µM stood at 97.2%.
On to `O=C(O)CCC(NC(=O)COc1ccc2c3c(c(=O)oc2c1)CCC3)C(=O)O` (stereo not drawn) [ALS-31-2], for which, in experiment [1], the remaining activity at 50 µM stood at 89.8% and the remaining activity at 100 µM amounted to 113%.
In the same order, the values of `CSCCC(NC(=O)CCNC(=O)COc1ccc2c3c(c(=O)oc2c1)CCC3)C(=O)O` (stereo not drawn) [ALS-31-3] are 78.8% and 104%.
For the compound `CSCCC(NC(=O)COc1cc(C)cc2oc(=O)c3c(c12)CCC3)C(=O)NCCC(=O)O` (stereo not drawn) [ALS-31-4], in experiment [1], the remaining activity at 50 µM came to 92.6% and the remaining activity at 100 µM came to 96.8%.
Regarding `CC(NC(=O)COc1ccc2c3c(c(=O)oc2c1)CCCC3)C(=O)NCC(=O)NCC(=O)O` (stereo not drawn) [ALS-31-5], in experiment [1], the remaining activity at 50 µM amounted to 93.4% and the remaining activity at 100 µM came out at 99.6%.
Regarding `O=C(O)CCCNC(=O)COc1ccc2c3c(c(=O)oc2c1)CCCC3` [ALS-31-6], in experiment [1], the remaining activity at 50 µM is 75.1%, the remaining activity at 100 µM turned out to be 78%, the IC50 was 127 ± 12 µM and the “effect on SmSOD activity (in words)” value is listed as “dose-dependent reduction”.
As to `O=C(O)CCNC(=O)COc1ccc2c3c(c(=O)oc2c1)CCCC3` [ALS-31-7], in experiment [1], the remaining activity at 50 µM amounted to 95.4% and the remaining activity at 100 µM amounted to 125%.
Regarding `CSCCC(NC(=O)CCNC(=O)COc1cc2oc(=O)c3c(c2cc1C)CCCC3)C(=O)O` (stereo not drawn) [ALS-31-8], in experiment [1], the remaining activity at 50 µM turned out to be 69.2%, the remaining activity at 100 µM was determined as 76.9%, the half-maximal inhibitory concentration (IC50) is 292 ± 30 µM and the “effect on SmSOD activity (in words)” value is on record as “dose-dependent reduction”.
Regarding `CCCC(NC(=O)COc1ccc2c3c(c(=O)oc2c1)CCCC3)C(=O)NCCCC(=O)O` (stereo not drawn) [ALS-31-9], in experiment [1], the remaining activity at 50 µM worked out at 65.3%, the remaining activity at 100 µM is 50.3%, the IC50 was found to be 64 ± 15 µM and the “effect on SmSOD activity (in words)” value is given as “dose-dependent reduction”. In experiment [1] (ratio of IC50 values), the “improved inhibition power on SmSOD compared to lead ALS-31” value worked out at 2.5 fold. Also, the “percentage of planktonic growth of S. mutans” value in experiment [2] (54 µM) stood at 79.0 ± 4.6%. The “percentage of planktonic growth of S. mutans” value in experiment [2] (108 µM) came to 39.5 ± 2.1%. Moreover, in experiment [2] (216 µM), the “planktonic growth of S. mutans compared with 108 µM” value is listed as “no further reduction”. Also, in experiment [2], the “concentration up to which no antimicrobial activity is displayed in S. mutans suspensions” value is given as no more than 25 µM. The inhibition at 13.5 µM in experiment [3] (13.5 µM) amounted to 29.4%. In experiment [3] (27.3 µM), the inhibition at 27.3 µM was 62.1%.
Regarding `CSCCC(NC(=O)COc1ccc2c3c(c(=O)oc2c1)CCCC3)C(=O)O` (stereo not drawn) [ALS-31-10], in experiment [1], the remaining activity at 50 µM was determined as 75%, the remaining activity at 100 µM was found to be 68.9%, the concentration for half-maximal inhibition (IC50) came out at 139 ± 8 µM and the “effect on SmSOD activity (in words)” value is recorded as “dose-dependent reduction”.
Regarding `CCCC(NC(=O)COc1ccc2c3c(c(=O)oc2c1)CCCC3)C(=O)O` (stereo not drawn) [ALS-31-11], in experiment [1], the remaining activity at 50 µM amounted to 83.7% and the remaining activity at 100 µM is 125%.
In the same order, the values of `O=C(O)CNC(=O)CNC(=O)COc1ccc2c3c(c(=O)oc2c1)CCCC3` [ALS-31-12] are 75.6% and 125%.
